Measured values from BigSolDB 2.1.

O=C(N[C@@H](CO)C(=O)O)OCc1ccccc1
solubility (mole fraction)
Settings | 283.15 K | 288.15 K | 293.15 K | 298.15 K | 303.15 K | 308.15 K | 313.15 K | 318.15 K | 323.15 K
in 2-butanone | 0.0333 | 0.037 | 0.0404 | 0.0456 | 0.052 | 0.0604 | 0.0726 | 0.0946 | 0.115
in acetone | 0.0708 | 0.0762 | 0.0835 | 0.0955 | 0.11 | 0.127 | 0.15 | 0.176 | 0.205
in acetonitrile | 0.00705 | 0.00841 | 0.00993 | 0.0126 | 0.0161 | 0.0213 | 0.0276 | 0.0385 | 0.0625
in ethyl acetate | 0.0143 | 0.0163 | 0.0189 | 0.0217 | 0.0257 | 0.0296 | 0.0353 | 0.0429 | 0.0541
in isobutanol | 0.0221 | 0.0246 | 0.0296 | 0.0365 | 0.0443 | 0.0552 | 0.0665 | 0.0912 | 0.115
in isopropanol | 0.0443 | 0.0505 | 0.0591 | 0.0707 | 0.0841 | 0.103 | 0.123 | 0.152 | 0.185
in methyl acetate | 0.0215 | 0.0262 | 0.0318 | 0.0365 | 0.0418 | 0.0477 | 0.0536 | 0.0635 | 0.0804
in n-butanol | 0.0279 | 0.0313 | 0.0388 | 0.0463 | 0.0562 | 0.067 | 0.0821 | 0.102 | 0.137
in n-pentanol | 0.0265 | 0.0286 | 0.0331 | 0.039 | 0.0455 | 0.0542 | 0.0628 | 0.0854 | 0.112
in n-propanol | 0.0496 | 0.0567 | 0.0645 | 0.0722 | 0.0838 | 0.0956 | 0.11 | 0.127 | 0.175
in sec-butanol | 0.0335 | 0.0385 | 0.0471 | 0.0585 | 0.0715 | 0.0862 | 0.109 | 0.13 | 0.159
in water | 0.00097 | 0.00116 | 0.00133 | 0.00165 | 0.002 | 0.00247 | 0.00309 | 0.00448 | 0.00737
